Assay results published in patent US4649204A, “Dialkanolamine derivatives” (McNeilab, Inc., priority 1985, dated 1987).
Counter-ions that a name gives are not always drawn. Like-named read-outs stand apart in the source and are kept apart here.

Test system: decrease in exploratory activity and ptosis induced with tetrabenazine in mice
Assay: tetrabenazine (TBZ) antagonism test: antagonism of the decrease in exploratory activity and ptosis induced by tetrabenazine in mice (antidepressant activity)
Type: in vivo
Conditions: test compound 30 minutes prior to 32 mg/kg i.p. tetrabenazine; for ED50: Mus musculus, ip
Procedure: The antidepressant activity was determined using the "classical" tetrabenazine (TBZ) antagonism test. […] J. H. Nodine and J. H. Moyer (Lea and Febiger, Philadelphia) p.
Thirty minutes post tetrabenazine, the mice are tested for the presence of normal exploratory activity and ptosis. […] Three to five dosage levels, 10 mice per dosage level, are used per compound.

[1] = first figure of EA/Pt, read-out: TBZ ED50, EA (exploratory activity)
[2] = second figure of EA/Pt, read-out: TBZ ED50, Pt (ptosis)

Structure (SMILES): OCCN(CCO)CC(c1ccccc1)c1ccccc1 [Example I, 2,2'-[(2,2-Diphenylethyl)imino]bis[ethanol]Hydrochloride]
- ED50 [1]: 15 mg/kg
- ED50 [2]: 1.5 mg/kg

Structure (SMILES): CCC(C(c1ccccc1)c1ccccc1)N(CCO)CCO (stereo not drawn) [Example IV, 2,2'-[(1,1-Diphenyl-2-butyl)imino]bis[ethanol]Fumarate]
- ED50 [1]: 23 mg/kg
- ED50 [2]: 19 mg/kg

Structure (SMILES): CC(C(c1ccccc1)c1ccccc1)N(CCO)CCO (stereo not drawn) [Example V, 2,2'-[(1,1-Diphenyl-2-propyl)imino]bis[ethanol]Fumarate]
- ED50 [1]: 13 mg/kg
- ED50 [2]: 8 mg/kg

Structure (SMILES): OCCN(CCO)CC(c1ccccc1)c1cccs1 (stereo not drawn) [Example VI, 2,2'-{[2-Phenyl]-2-[(2-thienyl)ethyl]imino}bis{ethanol}.HI]
- ED50 [1]: ~60 mg/kg
- ED50 [2]: ~60 mg/kg

Structure (SMILES): OCCN(CCO)CC(c1ccc(Cl)cc1)c1ccc(Cl)cc1 [Example VII, 2,2'-{[2,2-Bis(4-chlorophenyl)ethyl]imino}bis{ethanol}]
- ED50 [1]: ~60 mg/kg
- ED50 [2]: ~60 mg/kg

Structure (SMILES): OCCN(CCO)CC(F)(c1ccccc1)c1ccccc1 [Example VIII, 2,2'-[(2-Fluoro-2,2-diphenylethyl)imino]-bis[ethanol]Dihexamate]
- ED50 [1]: 40 mg/kg
- ED50 [2]: 12 mg/kg

Structure (SMILES): CC(CN(CCO)CCO)(c1ccccc1)c1ccccc1 [II, 2,2'-[(2,2-Diphenylpropyl)imino]bis[ethanol]Hydrochloride]
- ED50 [1]: 28 mg/kg
- ED50 [2]: 35 mg/kg

Structure (SMILES): CC(O)CN(CC(C)O)CC(c1ccccc1)c1ccccc1.Cl (stereo not drawn) [III, 1,1'-[(2,2-Diphenylethyl)imino]bis[2-propanol].HCl]
- TBZ ED50, EA (exploratory activity) (i.p., first figure of EA/Pt): 11 mg/kg
- TBZ ED50, Pt (ptosis) (i.p., second figure of EA/Pt): 6 mg/kg

Structure (SMILES): O[C@H]1CN(CC(c2ccccc2)c2ccccc2)C[C@@H]1O [IX, 1-(2,2-Diphenylethyl)pyrrolidine-3,4-diol Hemifumarate]
- ED50 [1]: 35 mg/kg
- ED50 [2]: 6 mg/kg
